The pIC50 is −log10 of the IC50, conventionally taken in molar units. A high value points to a small IC50.

The structures appear in SMILES notation. pIC50: −log10 of the molar value.

This test addresses T1, Putative uncharacterized protein pk7 (Plasmodium falciparum, UniProt O96214).
T1 sequence (O96214 whole entry): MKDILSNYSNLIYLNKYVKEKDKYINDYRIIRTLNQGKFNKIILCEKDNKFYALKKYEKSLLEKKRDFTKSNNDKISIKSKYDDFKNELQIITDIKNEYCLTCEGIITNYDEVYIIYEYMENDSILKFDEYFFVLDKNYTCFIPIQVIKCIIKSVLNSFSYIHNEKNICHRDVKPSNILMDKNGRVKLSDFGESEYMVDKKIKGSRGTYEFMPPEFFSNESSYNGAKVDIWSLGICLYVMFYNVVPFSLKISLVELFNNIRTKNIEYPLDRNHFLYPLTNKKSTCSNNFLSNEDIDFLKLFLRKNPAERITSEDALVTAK
Kind of test: Inhibition of Plasmodium falciparum protein kinase 7.
Take `CN(Cc1ccc(F)nc1)c1ccc2ncc(-c3ccc(C#N)cc3)n2n1`: the negative logarithm of the IC50 (pIC50) is 5.97.
The compound `CN(Cc1ccc(F)nc1)c1ccc2ncc(-c3ccc(C(N)=O)cc3)n2n1` showed a pIC50 of 5.96.
`CN(Cc1ccc(F)nc1)c1ccc2ncc(-c3ccc(CO)cc3)n2n1` had a negative logarithm of the IC50 (pIC50) of 4.68.
Compound `CN(Cc1ccc(F)nc1)c1ccc2ncc(-c3ccc(N)cc3)n2n1` showed a pIC50 of 4.38.
`CN(Cc1ccc(F)nc1)c1ccc2ncc(-c3ccc(CNCO)cc3)n2n1` gave a pIC50 of 4.47.
For `CN(Cc1ccc(F)nc1)c1ccc2ncc(-c3ccc(Cn4ccnc4)cc3)n2n1`, the negative-log IC50 (pIC50) is 4.25.
For `CN(Cc1ccc(F)nc1)c1ccc2ncc(-c3ccc(CN4CCC(O)CC4)cc3)n2n1`, the pIC50 was 3.99.
Then `N#Cc1ccc(-c2cnc3ccc(N[C@H]4CCCNC4)nn23)cc1`, with 5.68.
